Molecules are shown by their SMILES.

Chain of Recombinant human HSD17B13 (Q7Z5P4 20-300): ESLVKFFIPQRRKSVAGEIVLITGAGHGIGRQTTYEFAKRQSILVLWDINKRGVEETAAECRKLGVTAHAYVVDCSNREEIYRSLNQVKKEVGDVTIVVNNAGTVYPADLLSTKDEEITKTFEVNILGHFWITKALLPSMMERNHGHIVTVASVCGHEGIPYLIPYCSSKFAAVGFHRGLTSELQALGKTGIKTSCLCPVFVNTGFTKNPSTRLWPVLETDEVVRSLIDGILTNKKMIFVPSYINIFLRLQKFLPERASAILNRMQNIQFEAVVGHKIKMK

This test addresses Recombinant human HSD17B13 (Homo sapiens (Human), UniProt Q7Z5P4). Put plainly: HSD17B13 rapid-fire mass spectrometry assay (RF/MS assay). The note with it: inhibition of HSD17B13; LTB4 10 μM, NAD+ 0.5 mM, RT 3 h; IC50 ranges A-E. It counts as biochemical. Put shortly: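 Product 12-oxo-LTB4 and substrate LTB4 quantified by RapidFire triple-quad MS in negative mode, giving percent conversion. Reaction: 80 nM recombinant hHSD17B13, 10 μM LTB4, 0.5 mM NAD+, compound up to 100 μM, pH 7.5, RT, 3 h. Variable-slope fit gave IC50; run in duplicate.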
What is called IC50 is the midpoint of a concentration-inhibition curve. For `COc1cc(C(=O)O)ccc1NS(=O)(=O)c1csc(-c2cccc(O)c2)n1` [Example 146], the 50% inhibitory concentration (IC50) fell in the range of 0.1 to 0.5 µM.

In the case of `COc1cc(C(=O)O)ccc1NS(=O)(=O)c1csc(-c2ccccn2)n1` [Example 147], the IC50 is 1 to 100 µM. With `COc1cc(C(=O)O)ccc1NS(=O)(=O)c1csc(-c2ccc(C#N)cc2)n1` [Example 148] the figure was 1 to 100 µM. With `COc1cc(C(=O)O)ccc1NS(=O)(=O)c1ccc(-c2ccccc2)s1` [Example 149] the figure was 0.5 to 1 µM; with `COc1cc(C(=O)O)ccc1NS(=O)(=O)c1csc(C#Cc2ccccc2)n1` [Example 150], 0.1 to 0.5 µM.

As to `COc1cc(C(=O)O)ccc1NS(=O)(=O)c1csc(-c2cccc3ccccc23)n1` [Example 151], the IC50 was 0.5 to 1 µM. Take `COc1cc(C(=O)O)ccc1NS(=O)(=O)c1csc(-c2c(C)ccc3ccccc23)n1` [Example 152]: the half-maximal inhibitory concentration (IC50) is 0.1 to 0.5 µM. With `COc1cc(C(=O)O)ccc1NS(=O)(=O)c1csc(-c2c(F)ccc3ccccc23)n1` [Example 153] the figure was 0.1 to 0.5 µM.

With `COc1cc(C(=O)O)ccc1NS(=O)(=O)c1csc(-c2ccc(OC)c3ccccc23)n1` [Example 154], the IC50 is 0.5 to 1 µM. With `COc1cc(C(=O)O)ccc1NS(=O)(=O)c1csc(-c2cccc3ccncc23)n1` [Example 155] the figure was 1 to 100 µM; with `COc1cc(C(=O)O)ccc1NS(=O)(=O)c1csc(-c2cccc(C)c2C)n1` [Example 156], 0.1 to 0.5 µM; with `COc1cc(C(=O)O)ccc1NS(=O)(=O)c1csc(-c2cccc3c2CCCC3)n1` [Example 157], 0.1 to 0.5 µM. `COc1cc(C(=O)O)ccc1NS(=O)(=O)c1cnc(-c2ccccc2)s1` [Example 158]: the half-maximal inhibitory concentration (IC50) was 0.1 to 0.5 µM. For the molecule `COc1cc(C(=O)O)ccc1NS(=O)(=O)c1csc(-c2ccccc2C#N)n1` [Example 159], the half-maximal inhibitory concentration (IC50) lay in the range of 1 to 100 µM.

As for `O=C(O)c1ccc(NS(=O)(=O)c2cnc(-c3ccccc3)s2)c(O)c1` [Example 160], the IC50 fell in the range of 0.1 to 0.5 µM.

Regarding `COc1cc(C(=O)O)ccc1NS(=O)(=O)c1cnc(-c2ccc(F)cc2)s1` [Example 161], the IC50 fell in the range of 0.1 to 0.5 µM.

On to `COc1cc(C(=O)O)ccc1NS(=O)(=O)c1ccc2ccc(S(=O)(=O)Nc3ccc(C(=O)O)cc3OC)cc2c1` [Example 162], for which the IC50 fell in the range of 0.1 to 0.5 µM. In the case of `COc1cc(C(=O)O)ccc1NS(=O)(=O)c1csc(Nc2ccccc2)n1` [Example 163] it was 1 to 100 µM; in that of `COc1cc(C(=O)O)ccc1NS(=O)(=O)c1csc(NCc2ccccc2)n1` [Example 164], 1 to 100 µM; in that of `COc1cc(C(=O)O)ccc1NS(=O)(=O)c1csc(NCCc2ccccc2)n1` [Example 165], 1 to 100 µM.

For `COc1cc(C(=O)O)ccc1NS(=O)(=O)c1csc(N2CCOCC2)n1` [Example 166], the IC50 was 1 to 100 µM. In the case of `COc1cc(C(=O)O)ccc1NS(=O)(=O)c1csc(/C=C/c2ccccc2)n1` [Example 167] it was 0.1 to 0.5 µM.

Turning to `COc1cc(C(=O)O)ccc1NS(=O)(=O)c1ccc(C#Cc2ccccc2)s1` [Example 168], the half-inhibitory concentration (IC50) lay within 0.1 to 0.5 µM. In the case of `COc1cc(C(=O)O)ccc1NS(=O)(=O)c1cnc(C#Cc2ccccc2)s1` [Example 169] it was 0.1 to 0.5 µM. In the case of `O=C(O)c1ccc(NS(=O)(=O)c2cccc(S(=O)(=O)Nc3ccc(C(=O)O)cc3O)c2)c(O)c1` [Example 170] it was 0.1 to 0.5 µM; in that of `O=C(O)c1ccc(NS(=O)(=O)c2ccc3ccc(S(=O)(=O)Nc4ccc(C(=O)O)cc4O)cc3c2)c(O)c1` [Example 171], under 0.1 µM; in that of `O=C(O)c1ccc(NS(=O)(=O)c2ccc(Oc3ccc(S(=O)(=O)Nc4ccc(C(=O)O)cc4O)cc3)cc2)c(O)c1` [Example 172], 0.1 to 0.5 µM. With `O=C(O)c1ccc(NS(=O)(=O)c2cnc(-c3ccc(F)cc3)s2)c(C(F)F)c1` [Example 173] the figure was 1 to 100 µM; with `COc1cc(C(=O)O)ccc1NS(=O)(=O)c1ccc(-c2ccc(F)cc2)s1` [Example 174], under 0.1 µM. Take `COc1cc(C(=O)O)ccc1NS(=O)(=O)c1ccc(-c2ccc(C)cc2)s1` [Example 175]: the half-inhibitory concentration (IC50) lay in the range of 0.1 to 0.5 µM. `COc1cc(C(=O)O)ccc1NS(=O)(=O)c1csc(C#Cc2ccc(C)cc2)n1` [Example 176, 3-methoxy-4-((2-(p-tolylethynyl)thiazole)-4-sulfonamido)benzoic acid]: the IC50 lay in the range of 0.1 to 0.5 µM. With `COc1ccc(C#Cc2nc(S(=O)(=O)Nc3ccc(C(=O)O)cc3OC)cs2)cc1` [Example 177] the figure was 0.1 to 0.5 µM; with `COc1cc(C(=O)O)ccc1NS(=O)(=O)c1ccc(-c2ccc(C(F)(F)F)cc2)s1` [Example 178], 0.1 to 0.5 µM; with `COc1ccc(-c2ccc(S(=O)(=O)Nc3ccc(C(=O)O)cc3OC)s2)cc1` [Example 179], 0.1 to 0.5 µM. In the case of `COc1cc(C(=O)O)ccc1NS(=O)(=O)c1ccc(-c2ccc(O)cc2)s1` [Example 180] it was 0.1 to 0.5 µM; in that of `COc1cc(C(=O)O)ccc1NS(=O)(=O)c1csc(CCc2ccccc2)n1` [Example 181], 1 to 100 µM. In the case of `COc1cc(C(=O)O)ccc1NS(=O)(=O)c1csc(C#Cc2ccc(C(F)(F)F)cc2)n1` [Example 182] it was under 0.1 µM; in that of `COc1cc(C(=O)O)ccc1NS(=O)(=O)c1csc(C#Cc2ccc(O)cc2)n1` [Example 183], 1 to 100 µM; in that of `COc1cc(C(=O)O)ccc1NS(=O)(=O)c1csc(C#Cc2ccc(F)cc2)n1` [Example 184], 0.1 to 0.5 µM. `COc1cc(C(=O)O)ccc1NS(=O)(=O)c1csc(C#Cc2ccc(Cl)cc2)n1` [Example 185]: the IC50 lay in the range of 0.5 to 1 µM. With `COc1cc(C(=O)O)ccc1NS(=O)(=O)c1csc(C#Cc2cccc(C)c2)n1` [Example 186] the figure was under 0.1 µM; with `COc1cc(C(=O)O)ccc1NS(=O)(=O)c1csc(C#Cc2ccccc2C)n1` [Example 187], under 0.1 µM. With `COc1cc(C(=O)O)ccc1NS(=O)(=O)c1csc(C#Cc2ccc(C(C)(C)C)cc2)n1` [Example 188] the figure was under 0.1 µM; with `COc1cc(C(=O)O)ccc1NS(=O)(=O)c1csc(C#Cc2ccc(C(C)C)cc2)n1` [Example 189], under 0.1 µM; with `COc1cccc(C#Cc2nc(S(=O)(=O)Nc3ccc(C(=O)O)cc3OC)cs2)c1` [Example 190], under 0.1 µM.

In the case of `COc1cc(C(=O)O)ccc1NS(=O)(=O)c1ccc(-c2cccc(O)c2)s1` [Example 191], the IC50 is under 0.1 µM. In the case of `COc1cc(C(=O)O)ccc1NS(=O)(=O)c1ccc(-c2ccccc2O)s1` [Example 192] it was 1 to 100 µM; in that of `COc1cc(C(=O)O)ccc1NS(=O)(=O)c1ccc(-c2ccccc2OC)s1` [Example 193], 0.1 to 0.5 µM. As to `COc1cc(C(=O)O)ccc1NS(=O)(=O)c1ccc(-c2ccccc2C)s1` [Example 194], the half-inhibitory concentration (IC50) is 0.1 to 0.5 µM. In the case of `COc1ccccc1C#Cc1nc(S(=O)(=O)Nc2ccc(C(=O)O)cc2OC)cs1` [Example 195], the IC50 is under 0.1 µM. In the case of `COc1cc(C(=O)O)ccc1NS(=O)(=O)c1csc(C#Cc2ccccc2Cl)n1` [Example 196] it was under 0.1 µM; in that of `COc1cc(C(=O)O)ccc1NS(=O)(=O)c1csc(C#Cc2cccc(Cl)c2)n1` [Example 197], under 0.1 µM. On to `COc1cc(C(=O)O)ccc1NS(=O)(=O)c1ccc(-c2ccc(-c3ccccc3)cc2)s1` [Example 198], for which the half-maximal inhibitory concentration (IC50) was in the range of 0.5 to 1 µM.
